# Source: patent publication US12528826B2, “[1,4]oxazepino[2,3-c]quinolinone derivatives as BCL6 inhibitors” (Cancer Research Technology Limited, priority 2019, dated 2026)
# Molecular target: T1, Trx-6×His-BCL6 (human BCL6 BTB domain covering amino-acid sequence 5-129) (Homo sapiens, UniProt P41182)
# T1 construct: made in house
# Test: HTRF assay (BCL6 / BCOR peptide)
# Format: binding
# Conditions: 1 nM Trx-6×His-BCL6, 300 nM BCOR-AF633 peptide, 2 hours incubation at room temperature
# Procedure: After 2 hours incubation at room temperature the plate was read on a Pherastar FSX (BMG Labtech) plate reader equipped with 337 nm laser excitation filter, a first emission filter at 620 nm and a second emission filter at 665 nm. The % inhibition at each concentration was calculated by normalising FRET ratio to the appropriate high (DMSO with all reagents) and low (DMSO without BCL6) controls.
row,Structure (SMILES),HTRF avg pIC50
1,"C[C@H]1CN(c2ncc(Cl)c(Nc3ccc4c(c3)c3c(c(=O)n4C)OCC(F)(F)[C@H](C4CC4)N3)n2)CCC1(F)F (single isomer, unassigned) [Example 14a, (S)-10-((5-chloro-2-((S)-4,4-difluoro-3-methylpiperidin-1-yl)pyrimidin-4-yl)amino)-2-cyclopropyl-3,3-difluoro-7-methyl-1,2,3,4-tetrahydro-[1,4]oxazepino[2,3-c]quinolin-6(7H)-one or (S)-10-((5-chloro-2-((R)-4,4-difluoro-3-methylpiperidin-1-yl)pyrimidin-4-yl)amino)-2-cyclopropyl-3,3-difluoro-7-methyl-1,2,3,4-tetrahydro-[1.4]oxazepino[2,3-c]quinolin-6(7H)-one]",7.81
2,"CC(=O)N[C@H]1C[C@@H](C)CN(c2ncc(Cl)c(Nc3ccc4c(c3)c3c(c(=O)n4C)OCC(F)(F)[C@H](C4CC4)N3)n2)C1 [Example 1f, N-((3S,5R)-1-(5-chloro-4-(((S)-2-cyclopropyl-3,3-difluoro-7-methyl-6-oxo-1,2,3,4,6,7-hexahydro-[1,4]oxazepino[2,3-c]quinolin-10-yl)amino)pyrimidin-2-yl)-5-methylpiperidin-3-yl)acetamide]",8.60
3,"C[C@@H]1C[C@H](N(C)C)CN(c2ncc(Cl)c(Nc3ccc4c(c3)c3c(c(=O)n4C)OCC(F)(F)[C@H](C4CC4)N3)n2)C1 [Example 1h, (S)-10-((5-chloro-2-((3S,5R)-3-(dimethylamino)-5-methylpiperidin-1-yl)pyrimidin-4-yl)amino)-2-cyclopropyl-3,3-difluoro-7-methyl-1,2,3,4-tetrahydro-[1,4]oxazepino[2,3-c]quinolin-6(7H)-one]",8.44
4,"Cn1c(=O)c2c(c3cc(Nc4nc(N5CCC[C@H](O)C5)ncc4Cl)ccc31)N[C@@H](C1CC1)C(F)(F)CO2 [Example 1i, (S)-10-((5-chloro-2-((S)-3-hydroxypiperidin-1-yl)pyrimidin-4-yl)amino)-2-cyclopropyl-3,3-difluoro-7-methyl-1,2,3,4-tetrahydro-[1,4]oxazepino[2,3-c]quinolin-6(7H)-one]",8.51

# Same assay, conditions: 1 nM Trx-6×His-BCL6, 300 nM BCOR-AF633 peptide, 2 hours incubation at room temperature; read-out: HTRF avg pIC50 (converted)
row,Structure (SMILES),IC50
1,"Cn1c(=O)c2c(c3cc(Nc4nc(N5CCN6CCCC6C5)ncc4Cl)ccc31)N[C@@H](C1CC1)C(F)(F)CO2 (mixture of isomers) [Example 12h, (S)-10-((5-chloro-2-((S)-hexahydropyrrolo[1,2-a]pyrazin-2(1H)-yl)pyrimidin-4-yl)amino)-2-cyclopropyl-3,3-difluoro-7-methyl-1,2,3,4-tetrahydro-[1,4]oxazepino[2,3-c]quinolin-6(7H)-one:(S)-10-((5-chloro-2-((R)-hexahydropyrrolo[1,2-a]pyrazin-2(1H)-yl)pyrimidin-4-yl)amino)-2-cyclopropyl-3,3-difluoro-7-methyl-1,2,3,4-tetrahydro-[1,4]oxazepino[2,3-c]quinolin-6(7H)-one (1:1)]",2.04 nM
2,"Cn1c(=O)c2c(c3cc(Nc4nc(N5CCN6C(=O)CCC6C5)ncc4Cl)ccc31)N[C@@H](C1CC1)C(F)(F)CO2 (mixture of isomers) [Example 12i, (S)-10-((5-chloro-2-((R)-6-oxohexahydropyrrolo[1,2-a]pyrazin-2(1H)-yl)pyrimidin-4-yl)amino)-2-cyclopropyl-3,3-difluoro-7-methyl-1,2,3,4-tetrahydro-[1,4]oxazepino[2,3-c]quinolin-6(7H)-one:(S)-10-((5-chloro-2-((S)-6-oxohexahydropyrrolo[1,2-a]pyrazin-2(1H)-yl)pyrimidin-4-yl)amino)-2-cyclopropyl-3,3-difluoro-7-methyl-1,2,3,4-tetrahydro-[1,4]oxazepino[2,3-c]quinolin-6(7H)-one (1:1)]",1.29 nM
3,"Cn1c(=O)c2c(c3cc(Nc4nc(N5CC(O)CC6(CCC6)C5)ncc4Cl)ccc31)N[C@@H](C1CC1)C(F)(F)CO2 (mixture of isomers) [Example 12j, (S)-10-((5-chloro-2-((R)-8-hydroxy-6-azaspiro[3.5]nonan-6-yl)pyrimidin-4-yl)amino)-2-cyclopropyl-3,3-difluoro-7-methyl-1,2,3,4-tetrahydro-[1,4]oxazepino[2,3-c]quinolin-6(7H)-one:(S)-10-((5-chloro-2-((S)-8-hydroxy-6-azaspiro[3.5]nonan-6-yl)pyrimidin-4-yl)amino)-2-cyclopropyl-3,3-difluoro-7-methyl-1,2,3,4-tetrahydro-[1,4]oxazepino[2,3-c]quinolin-6(7H)-one (1:1)]",2.63 nM
4,"CC(=O)N1CC2CCC(C1)N2c1ncc(Cl)c(Nc2ccc3c(c2)c2c(c(=O)n3C)OCC(F)(F)[C@H](C3CC3)N2)n1 (single isomer, unassigned) [Example 7a]",0.776 nM
5,"CC(=O)N1C2CCC1CN(c1ncc(Cl)c(Nc3ccc4c(c3)c3c(c(=O)n4C)OCC(F)(F)[C@H](C4CC4)N3)n1)C2 (single isomer, unassigned) [Example 7b]",1.62 nM
6,"CC1CC(CC(=O)N2CCC2)CN(c2ncc(Cl)c(Nc3ccc4c(c3)c3c(c(=O)n4C)OCC(F)(F)[C@H](C4CC4)N3)n2)C1 (single isomer, unassigned) [Example 12x16a]",2.04 nM
7,"CC1CC(CC(=O)N2CCC2)CN(c2ncc(Cl)c(Nc3ccc4c(c3)c3c(c(=O)n4C)OCC(F)(F)[C@H](C4CC4)N3)n2)C1 (single isomer, unassigned) [Example 12x16b]",5.37 nM
8,"CC1CC(CC(=O)N2CC(F)(F)C2)CN(c2ncc(Cl)c(Nc3ccc4c(c3)c3c(c(=O)n4C)OCC(F)(F)[C@H](C4CC4)N3)n2)C1 (single isomer, unassigned) [Example 12x17a]",3.98 nM
9,"CC1CC(CC(=O)N2CC(F)(F)C2)CN(c2ncc(Cl)c(Nc3ccc4c(c3)c3c(c(=O)n4C)OCC(F)(F)[C@H](C4CC4)N3)n2)C1 (single isomer, unassigned) [Example 12x17b]",13.2 nM
10,"Cn1c(=O)c2c(c3cc(Nc4nc(N5CC(F)(F)C5)ncc4Cl)ccc31)N[C@@H](C1CC1)C(F)(F)CO2 [Example 1a, (S)-10-((5-chloro-2-(3,3-difluoroazetidin-1-yl)pyrimidin-4-yl)amino)-2-cyclopropyl-3,3-difluoro-7-methyl-1,2,3,4-tetrahydro-[1,4]oxazepino[2,3-c]quinolin-6(7H)-one]",10.2 nM
11,"Cn1c(=O)c2c(c3cc(Nc4nc(N5CCN(C6CC6)C(=O)C5)ncc4Cl)ccc31)N[C@@H](C1CC1)C(F)(F)CO2 [Example 1b, (S)-10-((5-chloro-2-(4-cyclopropyl-3-oxopiperazin-1-yl)pyrimidin-4-yl)amino)-2-cyclopropyl-3,3-difluoro-7-methyl-1,2,3,4-tetrahydro-[1,4]oxazepino[2,3-c]quinolin-6(7H)-one]",1.95 nM
12,"C[C@H]1CN(c2ncc(Cl)c(Nc3ccc4c(c3)c3c(c(=O)n4C)OCC(F)(F)[C@H](C4CC4)N3)n2)CC(=O)N1C [Example 1c, (S)-10-((5-chloro-2-((S)-3,4-dimethyl-5-oxopiperazin-1-yl)pyrimidin-4-yl)amino)-2-cyclopropyl-3,3-difluoro-7-methyl-1,2,3,4-tetrahydro-[1,4]oxazepino[2,3-c]quinolin-6(7H)-one]",2.34 nM
13,"Cn1c(=O)c2c(c3cc(Nc4nc(NCC(C)(C)O)ncc4Cl)ccc31)N[C@@H](C1CC1)C(F)(F)CO2 [Example 1d, (S)-10-((5-chloro-2-((2-hydroxy-2-methylpropyl)amino)pyrimidin-4-yl)amino)-2-cyclopropyl-3,3-difluoro-7-methyl-1,2,3,4-tetrahydro-[1,4]oxazepino[2,3-c]quinolin-6(7H)-one]",3.63 nM
14,"Cn1c(=O)c2c(c3cc(Nc4nc(N5C[C@H]6C[C@@H]5CO6)ncc4Cl)ccc31)N[C@@H](C1CC1)C(F)(F)CO2 [Example 1e, (S)-10-((2-((1R,4R)-2-oxa-5-azabicyclo[2.2.1]heptan-5-yl)-5-chloropyrimidin-4-yl)amino)-2-cyclopropyl-3,3-difluoro-7-methyl-1,2,3,4-tetrahydro-[1,4]oxazepino[2,3-c]quinolin-6(7H)-one]",3.24 nM
15,"CC(=O)N[C@@H]1C[C@H](C)CN(c2ncc(Cl)c(Nc3ccc4c(c3)c3c(c(=O)n4C)OCC(F)(F)[C@H](C4CC4)N3)n2)C1 [Example 1g, N-((3R,5S)-1-(5-chloro-4-(((S)-2-cyclopropyl-3,3-difluoro-7-methyl-6-oxo-1,2,3,4,6,7-hexahydro-[1,4]oxazepino[2,3-c]quinolin-10-yl)amino)pyrimidin-2-yl)-5-methylpiperidin-3-yl)acetamide]",3.16 nM
16,"Cn1c(=O)c2c(c3cc(Nc4nc(N5CCC[C@@H](O)C5)ncc4Cl)ccc31)N[C@@H](C1CC1)C(F)(F)CO2 [Example 1j, (S)-10-((5-chloro-2-((R)-3-hydroxypiperidin-1-yl)pyrimidin-4-yl)amino)-2-cyclopropyl-3,3-difluoro-7-methyl-1,2,3,4-tetrahydro-[1,4]oxazepino[2,3-c]quinolin-6(7H)-one]",2.95 nM
17,"C[C@H]1CCCN(c2ncc(Cl)c(Nc3ccc4c(c3)c3c(c(=O)n4C)OCC(F)(F)[C@H](C4CC4)N3)n2)C1 [Example 1k, (S)-10-((5-chloro-2-((S)-3-methylpiperidin-1-yl)pyrimidin-4-yl)amino)-2-cyclopropyl-3,3-difluoro-7-methyl-1,2,3,4-tetrahydro-[1,4]oxazepino[2,3-c]quinolin-6(7H)-one]",38 nM
18,"C[C@@H]1CCCN(c2ncc(Cl)c(Nc3ccc4c(c3)c3c(c(=O)n4C)OCC(F)(F)[C@H](C4CC4)N3)n2)C1 [Example 1l, (S)-10-((5-chloro-2-((R)-3-methylpiperidin-1-yl)pyrimidin-4-yl)amino)-2-cyclopropyl-3,3-difluoro-7-methyl-1,2,3,4-tetrahydro-[1,4]oxazepino[2,3-c]quinolin-6(7H)-one]",25.7 nM
